Test results from US20070167499A1, “Biaryl linked hydroxamates: preparation and pharmaceutical applications” (A*BIO Pte Ltd., priority 2003, published 2007).

How the values were obtained:
[1] = test system: Ramos Burkitt-lymphoma cells; test: Apoptosis assay (Annexin V / PI flow cytometry); type: cell-based, human; details: 48 h after treatment with 10 μM
Description: In various therapies such as for proliferative disorders like cancer, the selective induction of apoptosis in proliferating cells such as tumor cells is one of the desirable approaches, and can be mediated by treatment with various anti-proliferative compounds [Blagosklonny MV, Oncogene, 23(16): 2967 (2004); Kaufmann and Eamshaw, Exp Cell Res. 256(1): 42-9 (2000)]. Programmed cell death or apoptosis is the cellular response to stress factors such as DNA damage introduced during conventional anti-cancer treatment. The concerted sequence of events during apoptosis, clearly differentiate this pathway from a non-coordinated form of cell death called necrosis. During the course of apoptosis, characteristic phenotypical cellular changes occur, which include the condensation of chromatin, the shrinkage of cells and finally the fragmentation of chromosomal DNA. One of the very early change caused by apoptotic events occurs in the phospholipids bilayer of the plasma membrane. The phospholipid phosphatidylserine is translocated from the inner to the outer side of the plasma-membrane and, as a result, is exposed to the extracellular space. One way of detecting early apoptotic cells is to determine the amount of phosphatidyl-serine at the extracellular side of the plasma-membrane which is accomplished by the standard flow cytometric method of Annexin V staining. The phospholipids recognizing protein Annexin V binds with high affinity to these inverted and exposed phosphatidyl-serines.
The ability of the compounds in this invention to induce apoptosis was tested in Ramos Burkitt-lymphoma cells. This cell line is one of the gold standard cell lines commonly used as a tissue culture model for B cell lymphoma. Representative compounds as indicated below were added to 80,000 cells per 500 μl growth medium (RPMI1640 medium supplemented with 2 mM L-Glutamine, 10% heat-inactivated FBS, 1 mM Na-Pyruvate and 10 mM HEPES) in 24 well format at various concentrations. Two days after the start of treatment, cells were collected and subjected to the Annexin V staining protocol following the instructions of the manufacturer (BD Biosciences). By using propidium iodide (PI) as a viability control, cells that stain positive for Annexin V, but negative for PI, are undergoing apoptosis.

HDAC1 enzyme (GST-HDAC1) = target: T1, HDAC1 enzyme (GST-HDAC1) (Homo sapiens, UniProt Q13547); test: In vitro HDAC assay for determination of IC50 values (BIOMOL fluorescent-based HDAC activity assay), HDAC1; type: biochemical; details: 600 nM HDAC1 enzyme, 500 μM Flur de lys generic substrate, room temperature 2 h
T1 construct: Amplification of human HDAC1 and HDAC8 coding region from this cDNA library; made in house; host or cells: SF9 insect cells (baculovirus, pDEST20 vector)
Experimental: (§1) Recombinant GST-HDAC1 and GST-HDAC-8 Protein expression and purification
(§2) Human cDNA library was prepared using cultured SW620 cells. Amplification of human HDAC1 and HDAC8 coding region from this cDNA library was cloned separately into the baculovirus expression pDEST20 vector and pFASTBAC vector respectively (GATEWAY Cloning Technology, Invitrogen Pte Ltd). The pDEST20-HDAC1 and pFASTBAC-HTGST-HDAC8 constructs were confirmed by DNA sequencing. Recombinant baculovirus was prepared using the Bac-To-Bac method following the manufacturer's instruction (Invitrogen Pte Ltd). Baculovirus titer was determined by plaque assay to be about 10^8 PFU/ml.
(§3) Expression of GST-HDAC1 or HTGST-HDAC8 was done by infecting SF9 cells (Invitrogen Pte Ltd) with pDEST20-HDAC1 or pFASTBAC-GST-HDAC8 baculovirus at MOI=1 for 48 h. Soluble cell lysate was incubated with pre-equilibrated Glutathione Sepharose 4B beads (Amersham) at 4° C. for 2 h. The beads were washed with PBS buffer for 3 times. The GST-HDAC1 protein or GST-HDAC8 protein was eluted by elution buffer containing 50 mM Tris, pH8.0, 150 mM NaCl, 1% Triton X-100 and 10 mM or 20 mM reduced Glutathione. The purified GST-HDAC1 protein or purified GST-HDAC8 protein was dialyzed with HDAC storage buffer containing 10 mM Tris, pH7.5, 100 mM NaCl and 3 mM MgCl2. 20% Glycerol was added to purified GST-HDAC1 protein or purified GST-HDAC8 before storage at −80° C.
(§4) In vitro HDAC assay for determination of IC50 values
The assay has been carried out in 96 well format and the BIOMOL fluorescent-based HDAC activity assay has been applied. The reaction composed of assay buffer, containing 25 mM Tris pH 7.5, 137 mM NaCl, 2.7 mM KCl, 1 mM MgCl2, 1 mg/ml BSA, tested compounds, 500 nM HDAC8 enzyme or 600 nM HDAC1 enzyme, 200 μM Flur de lys p53 peptide substrate for HDAC8 enzyme or 500 μM Flur de lys generic substrate for HDAC1 enzyme and subsequently was incubated at room temperature for 2 h. Flur de lys Developer was added and the reaction was incubated for 10 min. Briefly, deacetylation of the substrate sensitizes it to the developer, which then generates a fluorophore The fluorophore is excited with 360 nm light and the emitted light (460 nm) is detected on a fluorometric plate reader (Tecan Ultra Microplate detection system, Tecan Group Ltd.).
(§5) The analytical software, Prism 3.0® (GraphPad Software Inc) has been used to generate IC50 from a series of data.

HDAC8 enzyme (GST-HDAC8) = target: T2, HDAC8 enzyme (GST-HDAC8) (Homo sapiens, UniProt Q9BY41); test: In vitro HDAC assay for determination of IC50 values (BIOMOL fluorescent-based HDAC activity assay), HDAC8; type: biochemical; details: 500 nM HDAC8 enzyme, 200 μM Flur de lys p53 peptide substrate, room temperature 2 h; read-out: HDAC8 Enzyme Activity, IC50
T2 construct: Amplification of human HDAC1 and HDAC8 coding region from this cDNA library; made in house; host or cells: SF9 insect cells (baculovirus, pFASTBAC vector)
T2 sequence (Q9BY41 1-377): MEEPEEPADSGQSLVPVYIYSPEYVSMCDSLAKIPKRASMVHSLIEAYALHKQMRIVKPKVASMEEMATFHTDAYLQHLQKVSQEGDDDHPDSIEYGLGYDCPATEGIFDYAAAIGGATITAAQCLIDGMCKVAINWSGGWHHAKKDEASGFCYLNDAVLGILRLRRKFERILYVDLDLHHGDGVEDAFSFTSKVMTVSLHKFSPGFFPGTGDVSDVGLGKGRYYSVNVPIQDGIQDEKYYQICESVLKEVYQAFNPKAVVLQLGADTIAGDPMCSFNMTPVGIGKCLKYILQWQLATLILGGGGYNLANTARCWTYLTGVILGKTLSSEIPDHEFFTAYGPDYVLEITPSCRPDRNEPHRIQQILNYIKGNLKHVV
Experimental: as §1
as §2, with “The pDEST20-HDAC1 and pFASTBAC-HTGST-HDAC8 constructs were confirmed by DNA sequencing.” left out, “Ltd).” for “Ltd). Baculovirus titer was determined by plaque assay to be about 10^8 PFU/ml.”
as §3, §4
The assay has been carried out in 96 well format and the BIOMOL fluorescent-based HDAC activity assay has been applied. […] Flur de lys Developer was added and the reaction was incubated for 10 min. Briefly, deacetylation of the substrate sensitizes it to the developer, which then generates a fluorophore The fluorophore is excited with 360 nm light and the emitted light (460 nm) is detected on a fluorometric plate reader (Tecan Ultra Microplate detection system, Tecan Group Ltd.).
as §5

[2] = test system: acetylated H3 in Colo205 cells; test: Histone H3 acetylation assay (western-blot); type: cell-based, human; parameters: key: “Active” means accumulation of acetylated histone was observed when compared with control (without compound); details: Colo205 cells, 0.1, 1, 5 and 10 μM, after 24 h
Experimental: (§6) Histone H3, H4 and H2A acetylation assay
A hallmark of histone deacetylase (HDAC) inhibition is the increase in the acetylation level of histones. Histone acetylation, including H3, H4 and H2A can be detected by immuno-blotting (western-blot). Colo205 cells, approximately 1.5×10^6 cells/10 cm dish, were seeded in the previously described medium, cultivated for 24 h and subsequently treated with HDAC inhibitory agents at 0.1, 1, 5 and 10 μM final concentration. […] The protein concentration was quantified using BCA method (Sigma Pte Ltd). The protein lysate was separated using 4-12% bis-tris SDS-PAGE gel (Invitrogen Pte Ltd) and was transferred onto PVDF membrane (BioRad Pte Ltd). The membrane was probed separately using primary antibody specific for acetylated H3, acetylated H4 or acetylated H2A (Upstate Pte Ltd). The detection antibody, goat anti rabbit antibody conjugated with horse radish peroxidase (HRP) was used according to the manufacturing instruction (Pierce Pte Ltd). After removing the detection antibody from the membrane, an enhanced chemiluminescent substrate for detection of HRP (Pierce Pte Ltd) was added onto the membrane. After removing the substrate, the membrane was exposed to an X-ray film (Kodak) for 1 sec-20 mins. The X-ray film was developed using the X-ray film processor. The density of each band observed on the developed film could be analysed using UVP Bioimaging software (UVP, Inc, Upland, Calif.). The values were then normalized against the density of actin in the corresponding samples to obtain the expression of the protein.

[3] = test system: acetylated H4 in Colo205 cells; test: Histone H4 acetylation assay (western-blot); type: cell-based, human; parameters: key: “Active” means accumulation of acetylated histone was observed when compared with control (without compound); details: Colo205 cells, 0.1, 1, 5 and 10 μM, after 24 h
Experimental: as §6
A hallmark of histone deacetylase (HDAC) inhibition is the increase in the acetylation level of histones. Histone acetylation, including H3, H4 and H2A can be detected by immuno-blotting (western-blot). Colo205 cells, approximately 1.5×10^6 cells/10 cm dish, were seeded in the previously described medium, cultivated for 24 h and subsequently treated with HDAC inhibitory agents at 0.1, 1, 5 and 10 μM final concentration. After 24 h, cells were harvested and lysed according to the instruction from Sigma Mammalian Cell Lysis Kit. The protein concentration was quantified using BCA method (Sigma Pte Ltd). The protein lysate was separated using 4-12% bis-tris SDS-PAGE gel (Invitrogen Pte Ltd) and was transferred onto PVDF membrane (BioRad Pte Ltd). The membrane was probed separately using primary antibody specific for acetylated H3, acetylated H4 or acetylated H2A (Upstate Pte Ltd). The detection antibody, goat anti rabbit antibody conjugated with horse radish peroxidase (HRP) was used according to the manufacturing instruction (Pierce Pte Ltd). After removing the detection antibody from the membrane, an enhanced chemiluminescent substrate for detection of HRP (Pierce Pte Ltd) was added onto the membrane. After removing the substrate, the membrane was exposed to an X-ray film (Kodak) for 1 sec-20 mins. The X-ray film was developed using the X-ray film processor. The density of each band observed on the developed film could be analysed using UVP Bioimaging software (UVP, Inc, Upland, Calif.). The values were then normalized against the density of actin in the corresponding samples to obtain the expression of the protein.

T1 sequence (Q13547 whole entry): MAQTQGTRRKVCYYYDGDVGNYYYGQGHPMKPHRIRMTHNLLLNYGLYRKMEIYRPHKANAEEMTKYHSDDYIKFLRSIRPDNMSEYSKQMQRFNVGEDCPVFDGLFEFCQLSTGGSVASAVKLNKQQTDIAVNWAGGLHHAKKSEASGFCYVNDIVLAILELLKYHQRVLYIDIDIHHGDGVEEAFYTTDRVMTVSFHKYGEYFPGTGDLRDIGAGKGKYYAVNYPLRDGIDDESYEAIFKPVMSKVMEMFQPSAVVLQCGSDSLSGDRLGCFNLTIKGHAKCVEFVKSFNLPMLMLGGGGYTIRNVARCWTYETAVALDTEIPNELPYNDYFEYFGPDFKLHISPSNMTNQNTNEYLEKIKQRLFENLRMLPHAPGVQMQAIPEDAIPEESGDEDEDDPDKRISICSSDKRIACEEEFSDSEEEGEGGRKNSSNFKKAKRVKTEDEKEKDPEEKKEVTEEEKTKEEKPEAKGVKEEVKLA

| Compound | % cells in late apoptosis (Ramos) [1] [%] | IC50 (HDAC1 enzyme (GST-HDAC1)) [nM] | IC50 (HDAC8 enzyme (GST-HDAC8)) [nM] | Histone 3 acetylation [2] | Histone 4 acetylation [3] |
| --- | --- | --- | --- | --- | --- |
| O=C(Cc1ccccc1)NCc1cccc(-c2ccc(C(=O)NO)cc2)c1 [3′-(Phenylacetylamino-methyl)-biphenyl-4-carboxylic acid hydroxyamide, reference compound] | 89 | – | – | – | – |
| Cc1nc(C2CCCNC2)sc1C(=O)Nc1nc(-c2ccc(CC(=O)NO)s2)cs1 (stereo not drawn) [Example 6] | – | 2780 | 40 | – | – |
| O=C(Cc1ccc(-c2csc(NC(=O)c3ccc(N4CCNCC4)cc3)n2)s1)NO [Example 8] | 74 | 2760 | 89 | – | – |
| O=C(Cc1ccc(-c2csc(NC(=O)c3ccn(CC4CCNCC4)c3-c3ccccc3)n2)s1)NO [Example 10] | – | > 100000 | 140 | – | – |
| O=C(NO)c1ccc(-c2csc(NS(=O)(=O)c3ccccc3)n2)s1 [Example 15, 5-(2-Benzenesulfonylamino-thiazol-4-yl)-thiophene-2-carboxylic acid hydroxyamide] | – | 1130 | 290 | – | – |
| O=C(COc1ccccc1)Nc1nc(-c2ccc(C(=O)NO)s2)cs1 [Example 16, 5-[2-(2-Phenoxy-acetamino)-thiazol-4-yl]-thiophene-2-carboxylic acid hydroxyamide] | 90 | 700 | 38 | – | – |
| O=C(Cc1ccccc1)Nc1nc(-c2cc(C(=O)NO)no2)cs1 [Example 17, 5-(2-Phenylacetylamino-thiazol-4-yl)-isoxazole-3-carboxylic acid hydroxyamide] | – | 1400 | 340 | – | – |
| O=C(Nc1cccc(-c2cc(C(=O)NO)n[nH]2)c1)c1ccccc1 [Example 18, 5-(3-Benzoylamino-ihenyl)-1H-pyrazole-3-carboxylic acid hydroxyamide] | – | > 100000 | 350 | – | – |
| O=C(NO)c1ccc(-c2ccc(CNCCc3c[nH]c4ccccc34)cc2)s1 [Example 28] | – | 15 | 14 | – | – |
| O=C(NO)c1ccc(-c2cccc(CNCCc3ccccc3)c2)s1 [Example 29] | – | 87 | 26 | – | – |
| O=C(NO)c1ccc(-c2cccc(CNCCc3ccccn3)c2)s1 [Example 30] | – | 220 | 50 | Active | Active |
| O=C(NO)c1ccc(-c2cccc(CNCCc3c[nH]c4ccccc34)c2)s1 [Example 31] | – | 17 | 8 | – | – |
| O=C(NO)c1ccc(-c2ccc(NCc3ccccc3)cc2)s1 [Example 44] | 82 | 1420 | 110 | – | – |
